Patent US20110165115A1, “SYNERGISTIC ATTRACTANTS FOR PESTIFEROUS SOCIAL INSECTS” (STERLING INTERNATIONAL INC., priority 2010, published 2011)
Read-outs that look alike come from different tables or passages of the source.

Assays:
V. pensylvanica [1] = settings: background; cited from earlier work
[2] = system: yellowjackets occurring in the Eastern United States, hornets and paper wasps; settings: background; cited from earlier work
V. atropilosa [3] = assay type: in vivo, Vespula atropilosa; settings: Exp 1; HIPV added to WHY attractant in the top chamber, or WHY alone
Description: (§1) Three field trapping experiments were carried out during late July to early August 2009, in residential and woody areas around Spokane, Wash., USA, using the newly marketed Rescue® W•H•Y traps (www.rescue.com). As used herein, the W•H•Y trap is a trap in accordance with the description of United States Patent Application Publication No. 2009/0151228. The W•H•Y trap has a top chamber and a bottom chamber. The top chamber is baited with two attractants—one of which is a solid contained in a vial (2-methyl-1-butanol) and the other a liquid mixed with water (acetic acid), herein referred to as the W•H•Y top attractant. The bottom chamber is baited with a liquid attractant (heptyl butyrate) poured onto a cotton pad, herein referred to as the W•H•Y bottom attractant. Separation of the top and bottom attractants (otherwise antagonistic to each other when released from the same chamber) in two chambers was a design feature of this trap and creates two focal attraction sources from one trap for different species of wasps, hornets, and yellowjackets. Traps were hung 1.5-2.0 m above the ground on either the fence or tree branches ca. 5 m apart within each trap line. For each trapping experiment, six sets of traps were deployed with their initial trap positions within each set being randomized. To minimize positional effects and obtain more replications, wasp collections and trap re-randomization were carried out when ≧10-20 wasps were caught in the best trap. Each replicate lasted several days depending on wasp flight activity. Captured wasps were removed from the traps and kept in the zip-bags before taking back to the laboratory for recording of the species, gender status, and catch. […]
(§2) Trap catch data were converted to proportion (P) of total captured wasps within each replicate. Data were then transformed by arcsin√P to meet the assumptions of normality and homogeneity of variances for ANOVA. Means were compared by ANOVA followed by the Ryan-Einot-Gabriel-Welsh (REGW) multiple Q test (SPSS 16.0 for Windows) at α=0.05.

V. consobrina = assay type: in vivo, Vespula consobrina; settings: Exp 1; HIPV added to WHY attractant in the top chamber, or WHY alone
Description: as §1, §2

D. maculata = test: Field trapping Experiment 1, Rescue W•H•Y traps; assay type: in vivo, Dolichovespula maculata; settings: Exp 1; HIPV added to WHY attractant in the top chamber, or WHY alone
Description: (§3) Three field trapping experiments were carried out during late July to early August 2009, in residential and woody areas around Spokane, Wash., USA, using the newly marketed Rescue® W•H•Y traps (www.rescue.com). As used herein, the W•H•Y trap is a trap in accordance with the description of United States Patent Application Publication No. 2009/0151228. The W•H•Y trap has a top chamber and a bottom chamber. The top chamber is baited with two attractants—one of which is a solid contained in a vial (2-methyl-1-butanol) and the other a liquid mixed with water (acetic acid), herein referred to as the W•H•Y top attractant. The bottom chamber is baited with a liquid attractant (heptyl butyrate) poured onto a cotton pad, herein referred to as the W•H•Y bottom attractant. Separation of the top and bottom attractants (otherwise antagonistic to each other when released from the same chamber) in two chambers was a design feature of this trap and creates two focal attraction sources from one trap for different species of wasps, hornets, and yellowjackets. Traps were hung 1.5-2.0 m above the ground on either the fence or tree branches ca. 5 m apart within each trap line. For each trapping experiment, six sets of traps were deployed with their initial trap positions within each set being randomized. To minimize positional effects and obtain more replications, wasp collections and trap re-randomization were carried out when ≧10-20 wasps were caught in the best trap. Each replicate lasted several days depending on wasp flight activity. Captured wasps were removed from the traps and kept in the zip-bags before taking back to the laboratory for recording of the species, gender status, and catch.
(§4) Experiment 1 (Jul. 22-30, 2009) tested ten synthetic HIPV candidates [(E)-2-hexenal, (Z)-3-hexen-1-ol, (Z)-3-hexenyl acetate, cis-ocimene, linalool, methyl salicylate, geranyl acetate, trans-β-caryophyllene, trans-β-farnesene and (E)-4,8-dimethyl-1,3,7-nonatriene], including several paper wasp EAD-active compounds (see FIG. 2 for details), to determine their potential synergistic effect on the Rescue® W•H•Y trap attractants to paper wasps, yellowjackets, and hornets. Experiment 2 (Aug. 5-13, 2009) tested behavioral responses of the paper wasps and yellowjackets to the Rescue® W•H•Y trap attractants (top attractants only) and its combination with (E)-4,8-dimethyl-1,3,7-nonatriene, one of the EAD-active and behaviorally significant HIPVs, in a dose-response fashion. Experiment 3 (Aug. 5-13, 2009) was conducted to determine the potential behavioral activity of different doses of (E)-4,8-dimethyl-1,3,7-nonatriene alone. The individual (or different doses) HIPVs were loaded into either polyethylene bags or centrifuge tube type of dispensers, and released from the top of the W•H•Y trap chamber. W•H•Y trap attractants (both top and bottom or top only) alone and water (top chamber only) were included in the test as positive and blank controls, respectively. The dispenser types, loading and release rates of the tested semiochemicals are described in Tables 1, 2 and 3.
as §2

V. acadica = test: Field trapping Experiment 1, Rescue W•H•Y traps; assay type: in vivo, Vespula acadica; settings: Exp 1; HIPV added to WHY attractant in the top chamber, or WHY alone
Description: as §3
(§5) Experiment 3 (Aug. 5-13, 2009) was conducted to determine the potential behavioral activity of different doses of (E)-4,8-dimethyl-1,3,7-nonatriene alone. The individual (or different doses) HIPVs were loaded into either polyethylene bags or centrifuge tube type of dispensers, and released from the top of the W•H•Y trap chamber. W•H•Y trap attractants (both top and bottom or top only) alone and water (top chamber only) were included in the test as positive and blank controls, respectively. The dispenser types, loading and release rates of the tested semiochemicals are described in Tables 1, 2 and 3.
as §2

V. vulgaris = test: Field trapping Experiment 1, Rescue W•H•Y traps; assay type: in vivo, Vespula vulgaris; settings: Exp 1; HIPV added to WHY attractant in the top chamber, or WHY alone
Description: as §3, §5, §2

[4] = system: P. dominulus workers antennae; test: GC-EAD of synthetic mixture of known HIPVs; parameters: species or system Polistes dominulus; settings: 100 ng/μl each in hexane
Description: Aeration samples of the cherry branches (damaged or undamaged/slightly damaged) were injected (3 μl) splitless into a Varian CP-3800 GC equipped with a polar column (HP-INNOWax; 30 m×0.53 mm×1.0 μm film thickness; Agilent Technologies, Wilmington, Del., USA) and a 1:1 effluent splitter that allowed simultaneous flame ionization detection (FID) and electroantennographic detection (EAD) of the European paper wasp (Polistes dominulus) worker antennae to the separated volatile compounds. Helium was used as the carrier gas, and the injector and detector temperatures were 250° C. and 300° C., respectively. Column temperature was 50° C. for 1 min, rising to 240° C. at 10° C./min, and then held for 10 min. The outlet for the EAD was held in a humidified air stream flowing at 0.5 m/sec over the antennal preparation. EAD recordings were made using silver wire-glass capillary electrodes filled with Beadle-Ephrussi Ringer on freshly cut antennae. The antennal signals were stored and analyzed on a PC equipped with a serial IDAC interface box and the program EAD ver. 2.5 (Syntech, Hilversum, The Netherlands). In addition, GC-EAD responses to a synthetic mixture (100 ng/μl each) containing nine known HIPVs including cis-3-hexen-1-ol, cis-3-hexenyl acetate, trans-β-ocimene, (E)-4,8-dimethyl-1,3,7-nonatriene, linalool, methyl salicylate, geranyl acetate, trans-β-caryophyllene and trans-β-farnesene were tested on the P. dominulus workers. (See FIG. 2.) The same chemicals were also tested on beneficial insect antennae from Chrysopa oculata, Myrmeleon crudelis, Podisus maculiventris, and Hippodarnia convergens. (See FIG. 6.) Antennally active peaks in the aeration samples were identified by GC-MS on an HP 6890 GC series coupled with an HP 5973 Mass Selective Detector using the same type of GC column and conditions as described above. Compounds were identified by comparison of retention times with those of authentic standards and with mass spectra of standards.

D. arenaria = test: Field trapping Experiment 1, Rescue W•H•Y traps; assay type: in vivo, Dolichovespula arenaria; settings: Exp 1; HIPV added to WHY attractant in the top chamber, or WHY alone
Description: as §3, §4, §2

P. aurifer = test: Field trapping Experiment 1, Rescue W•H•Y traps; assay type: in vivo, Polistes aurifer; settings: Exp 1; HIPV added to WHY attractant in the top chamber, or WHY alone
Description: as §3, §5, §2

P. dominulus = test: Field trapping Experiment 1, Rescue W•H•Y traps; assay type: in vivo, Polistes dominulus; settings: Exp 1; HIPV added to WHY attractant in the top chamber, or WHY alone
Description: as §3, §5, §2

V. pensylvanica [5] = test: Field trapping Experiment 1, Rescue W•H•Y traps; assay type: in vivo, Vespula pensylvanica; settings: Exp 1; HIPV added to WHY attractant in the top chamber, or WHY alone
Description: as §3, §5, §2

V. atropilosa [6] = assay type: in vivo, Vespula atropilosa; settings: Exp 1; HIPV added to WHY attractant in the top chamber, or WHY alone; remark: listed apart in the source
yellowjackets = test: Field trapping Experiment 1, top chamber catches; assay type: in vivo; settings: Exp 1; HIPV combined with W•H•Y attractant (acetic acid and 2-methyl-1-butanol) in the top chamber
Description: as §3
Experiment 3 (Aug. 5-13, 2009) was conducted to determine the potential behavioral activity of different doses of (E)-4,8-dimethyl-1,3,7-nonatriene alone. The individual (or different doses) HIPVs were loaded into either polyethylene bags or centrifuge tube type of dispensers, and released from the top of the W•H•Y trap chamber. […]

[7] = system: Polistes dominulus worker antennae; test: GC-EAD of cherry branch aeration samples; settings: aeration of severely damaged cherry branches; at current release rates
Description: Lapin cherry branches with severely damaged cherries and leaves and undamaged or slightly damaged branches were collected from a cherry orchard at Creston, Canada, on Jul. 29, 2009, and were transported to the Sterling International, Inc. lab (Spokane, Wash.) on the same day and kept at 4° C. before aerations. Headspace volatiles from the cherry branches (damaged or undamaged) were sampled by a battery operated pump and a high density polyacetate oven bag (48.2×59.6 cm Reynolds® Oven Bag; Richmond, Va., USA) enclosure with one activated charcoal filter tube in the air inlet, on Jul. 30, 2009. The volatiles in the enclosure were trapped on one Porapak Q tube (50/80 mesh; 30 mg in Teflon tube: 3 mm×35 mm) for 2.5 hr (airflow 300 ml/min) and extracted with 1 ml redistilled pentane. Aeration samples of the cherry branches (damaged or undamaged/slightly damaged) were injected (3 μl) splitless into a Varian CP-3800 GC equipped with a polar column (HP-INNOWax; 30 m×0.53 mm×1.0 μm film thickness; […] Helium was used as the carrier gas, and the injector and detector temperatures were 250° C. and 300° C., respectively. Column temperature was 50° C. for 1 min, rising to 240° C. at 10° C./min, and then held for 10 min. The outlet for the EAD was held in a humidified air stream flowing at 0.5 m/sec over the antennal preparation. EAD recordings were made using silver wire-glass capillary electrodes filled with Beadle-Ephrussi Ringer on freshly cut antennae. The antennal signals were stored and analyzed on a PC equipped with a serial IDAC interface box and the program EAD ver. 2.5 (Syntech, Hilversum, The Netherlands). […] (See FIG. 2.) The same chemicals were also tested on beneficial insect antennae from Chrysopa oculata, Myrmeleon crudelis, Podisus maculiventris, and Hippodarnia convergens. (See […] active peaks in the aeration samples were identified by GC-MS on an HP 6890 GC series coupled with an HP 5973 Mass Selective Detector using the same type of GC column and conditions as described above. Compounds were identified by comparison of retention times with those of authentic standards and with mass spectra of standards.

| Compound | attraction (V. pensylvanica [1]) | attraction [2] | Total Yellowjacket Catches V. atropilosa (V. atropilosa [3]) | Total Yellowjacket Catches V. consobrina (V. consobrina) | Total Yellowjacket Catches D. maculata (D. maculata) | Total Yellowjacket Catches V. acadica (V. acadica) | Total Yellowjacket Catches V. vulgaris (V. vulgaris) | EAD response of worker antennae [4] | Total Yellowjacket Catches D. arenaria (D. arenaria) | Total Paper Wasps P. aurifer (P. aurifer) | Total Paper Wasps P. dominulus (P. dominulus) | Total Yellowjacket Catches V. pensylvanica (V. pensylvanica [5]) | Total Yellowjacket Catches V. atropilosa (V. atropilosa [6]) | effect on trap catches of yellowjackets in the top chambers (yellowjackets) | EAD response of worker antennae [7] |
| --- | --- | --- | --- | --- | --- | --- | --- | --- | --- | --- | --- | --- | --- | --- | --- |
| CCCCCCCOC(=O)CCC [heptyl butyrate] | as attractive | ineffective | – | – | – | – | – | – | – | – | – | – | – | – | – |
| C=CC(=C)CC/C=C(\C)CCC=C(C)C [E-β-Farnesene, trans-β-farnesene] | – | – | 1 | 0 | 8 | 0 | 36 | No repeatable EAD-responses | 10 | 13 | 29 | 321 | – | – | – |
| C=C1CC/C=C(\C)CC[C@@H]2[C@@H]1CC2(C)C (relative stereo) [β-Caryophyllene, trans-β-caryophyllene] | – | – | 1 | 1 | 0 | 2 | 51 | No repeatable EAD-responses | 5 | 12 | 35 | 234 | – | – | – |
| CC(=O)OC/C=C(\C)CCC=C(C)C [Geranyl Acetate, geranyl acetate] | – | – | – | 1 | 1 | 0 | 18 | responded consistently | 2 | 4 | 13 | 128 | 2 | inhibitory effect | – |
| CC=CC=CCOC(=O)CCC [2,4-hexadienyl butyrate] | powerfully attractive | – | – | – | – | – | – | – | – | – | – | – | – | – | – |
| C=C/C(C)=C/CC=C(C)C [Ocimene, cis-ocimene] | – | – | 2 | 0 | 17 | 0 | 52 | – | 11 | 17 | 29 | 402 | – | significant synergistic effect | did not elicit significant EAD-responses |
